Where two headings read alike, the source gives them in different places.
Legend:
BRAF V600E = BRAF V600E (Homo sapiens, UniProt P15056, V600E); test: HiBiT cellular BRAF^V600E degradation assay; format: cell-based
A375 cells = test: A375 cell growth (GI50); format: cell-based; details: Homo sapiens, A-375, at 96 hr
GSPT1 = molecular target: T1, GSPT1 (Homo sapiens, UniProt P15170); test: GSPT1 protein levels after treatment; format: cell-based; details: various concentrations
T1 construct: endogenously expressing GSPT1 with HiBiT fusion tag via CRISPR; endogenous in cells; host or cells: HEK293T.114

WT BRAF = WT BRAF (Homo sapiens, UniProt P15056); test: Western blot of WT BRAF and pERK levels in HCT-116 cells; format: cell-based; details: HCT-116 cells with endogenous WT BRAF
[1] = system: A375 cells expressing the oncogenic NRAS^Q61K mutation; test: Cellular growth over time of A375 cells expressing NRAS^Q61K; format: cell-based
LOXL4 = test: Global proteomics profiling, A375 cells; format: cell-based, human; details: 300 nM, 24 hours
Experimental: Each cell line was treated in duplicate with either DMSO or Compound 157 (final concentration 300 nM) for 24 hours in an incubator at 37° C. with 5% CO2. After the 24-hour incubation, cells were harvested, washed twice with PBS, and snap frozen in liquid nitrogen. Samples were re-suspended in lysis buffer [8 M urea, 50 mM HEPES (pH 8.5), 50 mM NaCl, 1× protease inhibitor cocktail] and lysed by sonication at 4° C. with 85% amplitude in a pulse setting with 30 seconds on and 30 seconds off for a total sonication time of 5 minutes. Lysates were centrifuged at maximum speed for 10 minutes at 4° C. and the supernatant collected, reduced for 1 hour at room temperature with 5 mM TCEP, and the cysteine residues were then alkylated with 15 mM iodoacetamide (room temperature, in dark, 30 minutes). Protein content was extracted by methanol-chloroform precipitation and subsequent ice-cold acetone washes. Protein pellets were resuspended in 8 M urea, 50 mM HEPES (pH 8.5) buffer and protein concentrations were measured by BCA assay. […]
For peptide tandem mass tag (TMT) labeling, 100 μg of peptides per sample was prepared at […] concentration in 200 mM HEPES (pH 8.5), 30% acetonitrile (ACN) and each the specific TMT reagent. […] TMT reporter ion intensities were quantified by extracting the signal-to-noise ratio for each. […]

BRAF V600E, sequence (P15056 whole entry V600E): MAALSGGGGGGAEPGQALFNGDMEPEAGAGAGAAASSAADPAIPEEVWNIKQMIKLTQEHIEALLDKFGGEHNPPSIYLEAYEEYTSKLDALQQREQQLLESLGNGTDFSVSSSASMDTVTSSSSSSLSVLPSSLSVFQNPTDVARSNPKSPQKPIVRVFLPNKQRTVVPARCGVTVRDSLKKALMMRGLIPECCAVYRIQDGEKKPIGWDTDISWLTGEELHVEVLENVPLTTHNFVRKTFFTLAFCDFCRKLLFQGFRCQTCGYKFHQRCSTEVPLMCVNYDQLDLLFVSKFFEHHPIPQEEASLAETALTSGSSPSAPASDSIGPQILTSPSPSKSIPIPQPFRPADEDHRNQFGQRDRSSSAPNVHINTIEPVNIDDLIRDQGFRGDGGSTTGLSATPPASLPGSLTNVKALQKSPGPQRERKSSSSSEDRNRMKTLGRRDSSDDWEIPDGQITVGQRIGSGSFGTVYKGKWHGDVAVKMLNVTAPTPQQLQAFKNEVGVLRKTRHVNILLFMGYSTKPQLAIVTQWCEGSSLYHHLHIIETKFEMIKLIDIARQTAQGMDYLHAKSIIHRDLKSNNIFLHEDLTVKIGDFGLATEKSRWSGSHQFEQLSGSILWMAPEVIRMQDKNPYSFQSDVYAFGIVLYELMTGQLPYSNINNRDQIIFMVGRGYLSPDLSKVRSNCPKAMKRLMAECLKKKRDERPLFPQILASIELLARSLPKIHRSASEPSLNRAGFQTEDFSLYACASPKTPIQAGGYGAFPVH
T1 sequence (P15170 whole entry, the tested form may be a part): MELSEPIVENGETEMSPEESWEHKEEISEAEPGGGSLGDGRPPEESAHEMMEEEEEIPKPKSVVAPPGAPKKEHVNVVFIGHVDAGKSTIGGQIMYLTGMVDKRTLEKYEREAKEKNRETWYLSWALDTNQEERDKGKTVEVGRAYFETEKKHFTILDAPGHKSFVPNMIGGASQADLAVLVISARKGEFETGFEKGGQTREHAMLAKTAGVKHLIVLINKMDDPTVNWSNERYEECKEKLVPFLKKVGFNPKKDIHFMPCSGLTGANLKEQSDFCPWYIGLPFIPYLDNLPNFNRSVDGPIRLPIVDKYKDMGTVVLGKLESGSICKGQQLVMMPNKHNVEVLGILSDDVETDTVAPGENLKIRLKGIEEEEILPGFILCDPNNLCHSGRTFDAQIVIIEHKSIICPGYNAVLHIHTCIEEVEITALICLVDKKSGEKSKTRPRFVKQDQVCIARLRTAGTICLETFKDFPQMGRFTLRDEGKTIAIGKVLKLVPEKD
WT BRAF, sequence (P15056 whole entry): as the sequence (P15056 whole entry V600E) above, with E600V counted along it

Question: Which BRAF protein degraded (BRAF V600E) does the source give for `CCN(C)S(=O)(=O)Nc1ccc(F)c(Oc2ccc3ncn([C@H]4COC5(CCN(C(=O)CC6(O)CCN(c7cc8c(cc7F)c(N7CCC(=O)NC7=O)nn8C)CC6)CC5)C4)c(=O)c3c2)c1C#N` [Compound 157, (3R)-3-[6-[2-cyano-3-[[ethyl(methyl)sulfamoyl]amino]-6-fluorophenoxy]-4-oxoquinazolin-3-yl]-8-[2-[1-[3-(2,4-dioxo-1,3-diazinan-1-yl)-5-fluoro-1-methylindazol-6-yl]-4-hydroxypiperidin-4-yl]acetyl]-1-oxa-8-azaspiro[4.5]decane] here?
Answer: Its BRAF protein degraded is 74%.

Question: And the “HiBit 24 h Emax” value (BRAF V600E)?
Answer: The value was 27.48%.

Question: What about the Emax (BRAF V600E; A-375, read-out: Emax BRAF^V600E degradation) of the same molecule?
Answer: The Emax was 26%.

Question: And the Emax (BRAF V600E; read-out: HiBit 24 h Emax)?
Answer: The Emax was ~25%.

Question: What about the GI50 (A375 cells) of the same molecule?
Answer: The GI50 was 94 nM.

Question: And the GSPT1 protein levels (GSPT1)?
Answer: Its GSPT1 protein levels is “steady”.

Question: And the “WT BRAF levels and phosphorylation of ERK” value (WT BRAF)?
Answer: Its value is “minimal impact”.

Question: And the confluency [1]?
Answer: The confluency was ≤ 50%.

Question: And the “LOXL4 protein level change” value (LOXL4)?
Answer: The value was “decreased”.

Reference: patent publication US12486253B2, “Therapeutics for the degradation of mutant BRAF” (C4 THERAPEUTICS, INC., priority 2021, dated 2025)
